Results from US7906491B2 (Univisitair Medisch Centrum Utrecht, priority 2002, dated 2011).
pEC50: −log10 of the molar value.

Key:
CREB = CREB phosphorylation in Ovcar3 cells; type: cell-based; conditions: concentration of 200 μM
Description: A: 8-pCPT-2′-O-Me-cAMP stimulates cell adhesion. Upper panel: quantification of Ovcar3 cells adhering to fibronectin after treatment with increasing concentrations of 8-pCPT-2′-O-Me-cAMP. Lower panel: Ovcar3 cells were treated with increasing concentrations of 8-pCPT-2′-O-Me-cAMP for 15 min, cells were lysed and analyzed for activation of Rap1 (upper blot) and CREB (lower blot). Total Rap1 levels are shown (middle blot). B: 8-pCPT-2′-O-Me-cAMP increases the rate of cell adhesion. Upper panel: quantification of Ovcar3 cells adhering to fibronectin at various time points. Lower panel: cells were treated with 60 μM 8-pCPT-2′-O-Me-cAMP for the indicated times. Cell lysates were analyzed for activation of Rap1 (upper blot) and CREB (lower blot). Total levels of Rap1 in cell lysates are shown (middle blot). C: Ovcar3 cells were either pre-incubated at 37° C. for 30 min with the PKA inhibitor H-89 (10 μM) 30 min prior to seeding onto the wells (‘Short’) or H-89 was added 30 min prior to trypsinization and during the recovery period (‘Long’) and seeded onto wells in the absence or presence of 8-pCPT-2′-O-Me-cAMP (100 μM). Cells were allowed to adhere for 1 h. D, cAMP-induced adhesion to fibronectin is blocked by inhibitors of Rap1. […] Cells were treated with 8-Br-cAMP or 8-pCPT-2′-O-Me-cAMP and adhesion to fibronectin was determined. […]

Ovcar3 cells = assay: Adhesion assay of Ovcar3 cells to fibronectin; type: cell-based
Description: A: 8-pCPT-2′-O-Me-cAMP stimulates cell adhesion. Upper panel: quantification of Ovcar3 cells adhering to fibronectin after treatment with increasing concentrations of 8-pCPT-2′-O-Me-cAMP. Lower panel: Ovcar3 cells were treated with increasing concentrations of 8-pCPT-2′-O-Me-cAMP for 15 min, cells were lysed and analyzed for activation of Rap1 (upper blot) and CREB (lower blot). Total Rap1 levels are shown (middle blot). B: 8-pCPT-2′-O-Me-cAMP increases the rate of cell adhesion. Upper panel: quantification of Ovcar3 cells adhering to fibronectin at various time points. Lower panel: cells were treated with 60 μM 8-pCPT-2′-O-Me-cAMP for the indicated times. Cell lysates were analyzed for activation of Rap1 (upper blot) and CREB (lower blot). Total levels of Rap1 in cell lysates are shown (middle blot). C: Ovcar3 cells were either pre-incubated at 37° C. for 30 min with the PKA inhibitor H-89 (10 μM) 30 min prior to seeding onto the wells (‘Short’) or H-89 was added 30 min prior to trypsinization and during the recovery period (‘Long’) and seeded onto wells in the absence or presence of 8-pCPT-2′-O-Me-cAMP (100 μM). Cells were allowed to adhere for 1 h. D, cAMP-induced adhesion to fibronectin is blocked by inhibitors of Rap1. Left panel: Ovcar3 cells were transiently transfected with either mock DNA, increasing concentrations of HA-Rap1GAP II (0.5, 1, 2 or 6 μg, respectively), HA-Rap1GAPI (6 μg) or HA-RBD of RalGDS (6 μg), respectively. Cells were treated with 8-Br-cAMP or 8-pCPT-2′-O-Me-cAMP and adhesion to fibronectin was determined. […]
In functional assays, 8-pCPT-2′-O-Me-cAMP appeared to induce integrin-mediated cell adhesion through Epac and Rap1. […] The cells were seeded onto fibronectin-coated plates in the presence or absence of 8-pCPT-2′-O-Me-cAMP and the amount of cells that adhered after a certain period of time was quantified. […]
24-well plates were coated overnight with 2 μg/ml fibronectin (Sigma, St. Louis, Mo., USA) in sodium bicarbonate buffer (Sigma, St. Louis, Mo., USA). […] Cells were centrifuged, counted and resuspended at 3×10^5 cells/ml in serum-free RPMI with 0.5% BSA. […]

Epac = target: T1, Epac (Homo sapiens, UniProt O95398); assay: Relative affinity for Epac (cAMP = 1), in vitro; type: binding; conditions: relative to cAMP = 1
T1 sequence (O95398 1-923): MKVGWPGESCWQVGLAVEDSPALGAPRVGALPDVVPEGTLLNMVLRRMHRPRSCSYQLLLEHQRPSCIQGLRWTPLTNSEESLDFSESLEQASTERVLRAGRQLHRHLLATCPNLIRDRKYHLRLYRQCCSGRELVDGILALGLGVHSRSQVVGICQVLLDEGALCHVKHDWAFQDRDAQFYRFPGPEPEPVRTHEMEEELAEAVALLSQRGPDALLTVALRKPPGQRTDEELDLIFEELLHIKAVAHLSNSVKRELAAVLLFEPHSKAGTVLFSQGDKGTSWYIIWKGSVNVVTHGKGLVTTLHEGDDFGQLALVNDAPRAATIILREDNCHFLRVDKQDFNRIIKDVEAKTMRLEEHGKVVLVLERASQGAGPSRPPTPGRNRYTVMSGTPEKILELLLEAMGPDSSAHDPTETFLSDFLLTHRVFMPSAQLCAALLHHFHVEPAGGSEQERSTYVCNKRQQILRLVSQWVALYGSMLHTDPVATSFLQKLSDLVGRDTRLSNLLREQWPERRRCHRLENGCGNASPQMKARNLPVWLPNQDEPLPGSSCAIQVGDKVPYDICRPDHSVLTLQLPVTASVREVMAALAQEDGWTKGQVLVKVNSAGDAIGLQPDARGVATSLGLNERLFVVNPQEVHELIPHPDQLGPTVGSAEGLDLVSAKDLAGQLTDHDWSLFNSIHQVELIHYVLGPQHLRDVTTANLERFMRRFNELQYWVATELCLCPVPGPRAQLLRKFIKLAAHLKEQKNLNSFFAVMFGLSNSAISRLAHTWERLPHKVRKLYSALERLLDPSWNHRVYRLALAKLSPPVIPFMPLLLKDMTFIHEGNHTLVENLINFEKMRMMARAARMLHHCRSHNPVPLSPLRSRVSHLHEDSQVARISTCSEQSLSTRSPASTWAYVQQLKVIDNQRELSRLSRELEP

PKAI = assay: Relative affinity for PKAI (cAMP = 1), in vitro; type: binding; conditions: relative to cAMP = 1

pEC50 (Ovcar3 cells; Homo sapiens, OVCAR-3, FIG. 7A, read-out: EC50 of enhanced cell adhesion to fibronectin): ~4.52
Relative affinity CAMP = 1 Epac (Epac): 4.6
SMILES: CO[C@@H]1[C@@H]2OP(=O)(O)OC[C@H]2O[C@H]1n1c(Sc2ccc(Cl)cc2)nc2c(N)ncnc21 [Compound I-007, 8-(4-chloro-phenylthio)-2′-O-methyladenosine-3′,5′-cyclic monophosphate]
CREB phosphorylation (CREB): did not induce CREB phosphorylation
time after which increased adhesion was already observed (Ovcar3 cells; fibronectin, time-course, FIG. 7B): 30 min
Relative affinity CAMP = 1 PKAI (PKAI): 0.009
